Read-outs that look alike come from different tables or passages of the source.
What was measured:
[1] = system: PTSD caused by abuse in early childhood; conditions: for Total score (PCL-5): 7% hydrogen gas inhaled, before inhalation score 66
Method: Adult women who had lived for 10 years or longer after the onset of PTSD caused by abuse in early childhood were subjected to inhalation of hydrogen gas with a concentration of 7% by using a hydrogen generator (MHG-2000α, produced by MiZ Company Limited) for at least 1 hour (up to 4 hours) per day over 7 weeks. Each of the subjects had been regularly using an analgesic prescribed by a physician to treat pain, and continued the regular use also during the period of inhalation.
Symptoms of PTSD were quantified through interviews by a physician with the PTSD Checklist for DSM-5 (PCL-5; published by the National Center for PTSD).

[2] = system: mice exposed to blast (bmTBI)
Method: All animal experiments relating to the present invention were conducted according to the institutional ethical guidelines for animal experiments of the National Defense Medical College and these animal experiments were approved by the Committee for Animal Research at the National Defense Medical College. Inbred C57BL/6 mice were used in this experiment. Age-matched male littermate mice were used in all experiments. The mice were housed in a breeding room with a 12-h light/dark cycle and a room temperature maintained at 24±1° C. The mice had ad libitum access to water and food. […]
Behavioral analysis was performed 7 days after the blast exposure. […] The behavior of each mouse was monitored and analyzed using a computer-operated video tracking system (SMART, Panlab, Barcelona, Spain), unless otherwise stated. In tests using an apparatus with arms, arm entry was counted when all four legs of a mouse entered each arm. […]
A sociability test was performed by using a conventional method. Interaction time with another living mouse versus a stuffed mouse was measured in an open field using two cylinder cages allowing olfactory and minimal tactile feelings. […]

[3] = system: PTSD due to physical abuse in early childhood and later stages; conditions: 7% hydrogen gas inhaled, before inhalation score 61
Method: Adult women who had experienced the onset of PTSD due to an intense psychological shock received through physical abuse in early childhood and later stages were subjected to inhalation of hydrogen gas with a concentration of 7% by using a hydrogen generator (MHG-2000α, produced by MiZ Company Limited) for 1 to 3 hours per day over 3 weeks. Each of the subjects had been regularly using an analgesic prescribed by a physician to treat pain, and continued the regular use also during the period of inhalation.
(§1) Symptoms of PTSD were quantified through interviews by a physician.

[4] = system: ROS formation in the brains; conditions: 6 days after blast exposure; 4% hydrogen gas 6 hours per day
Method: (§2) All animal experiments relating to the present invention were conducted according to the institutional ethical guidelines for animal experiments of the National Defense Medical College and these animal experiments were approved by the Committee for Animal Research at the National Defense Medical College. Inbred C57BL/6 mice were used in this experiment. Age-matched male littermate mice were used in all experiments. The mice were housed in a breeding room with a 12-h light/dark cycle and a room temperature maintained at 24±1° C. The mice had ad libitum access to water and food.
(§3) The mice at 10 weeks of age were anesthetized by intraperitoneal administration of mixed anesthetic agents containing medetomidine hydrochloride (0.3 mg/kg, Domitol, Meiji Seika Pharma Co., Ltd.), midazolam (4.0 mg/kg, Dormice, Astellas Pharma Inc.), and butorphanol (5.0 mg/kg, Vetorphale, Meiji Seika Pharma Co., Ltd.). […] Following blast exposure, mice were allowed to recover from anesthesia and were subsequently returned to their home cage.
(§4) Mice were placed in a humid chamber for hydrogen gas inhalation for 6 hours per day. Hydrogen gas diluted by air (4%) was supplied to the chamber from a hydrogen gas supply apparatus (MiZ Company Limited) at a feeding rate of 2 L/min. The mice had ad libitum access to water and food in the chamber.

[5] = system: PTSD due to an intense psychological shock received in military operations; conditions: for Total score: 7% hydrogen gas inhaled, before inhalation score 49
Method: Adult women who had experienced the onset of PTSD due to an intense psychological shock received in military operations were subjected to inhalation of hydrogen gas with a concentration of 7% by using a hydrogen generator (MHG-2000α, produced by MiZ Company Limited) for at least 2 hours (up to 4 hours) per day over 3 weeks. Each of the subjects had been regularly using an analgesic prescribed by a physician to treat pain, and continued the regular use also during the period of inhalation.
as §1

[6] = system: mice exposed to blast (bmTBI); remark: listed apart in the source
Method: as §2, §3, §4
Behavioral analysis was performed 7 days after the blast exposure. All mice used in the behavioral analysis were age-matched male littermates. The behavior of each mouse was monitored and analyzed using a computer-operated video tracking system (SMART, Panlab, Barcelona, Spain), unless otherwise stated. In tests using an apparatus with arms, arm entry was counted when all four legs of a mouse entered each arm. The apparatus was washed after each test. Behavioral studies were performed for mice at 11 to 12 weeks of age.

[7] = at clinical concentrations, previous studies; cited from earlier work
[8] = 7 days after blast, 4% hydrogen gas 6 hours per day for 7 days, one-way ANOVA p>0.05

Structure (SMILES): [HH] [hydrogen gas]
- Symptoms of PTSD after the initiation of inhalation ([1]; 7% hydrogen gas, 1 to 4 hours per day over 7 weeks): tended to ameliorate
- Total score (PCL-5) ([1]; Week 1, average 2.2 H/day): 55
- Total score (PCL-5) ([1]; Week 2, average 3.8 H/day): 41
- Total score (PCL-5) ([1]; Week 4, average 2.8 H/day): 41
- Total score (PCL-5) ([1]; Week 7, average 1.1 H/day): 27
- Abnormal social behaviors induced by blast ([2]; conclusion from sociability, olfactory and novelty tests): suppressed the abnormal social behaviors induced by blast
- Difference between interaction time with living mouse and with stuffed mouse ([2]; within bmTBI+H2 group, t-test p>0.05): no significant difference
- Total score ([3]; Week 1, average 3 H/day): 62
- Total score ([3]; Week 2, average 2 H/day): 60
- Total score ([3]; Week 4, average 1 H/day): 49
- Total score ([3]; Week 7, average 2 H/day): 53
- Total score ([3]; Week 10, average 2.15 H/day): 50
- ROS in the brains (ethidium fluorescence) versus blast exposure alone [4]: significantly reduced
- Symptoms of PTSD after the initiation of inhalation ([5]; 7% hydrogen gas, 2 to 4 hours per day over 3 weeks): tended to ameliorate
- Total score ([5]; Week 2, average 4 H/day): 16
- Total score ([5]; Week 3, average 2 H/day): 12
- Activity, total distance traveled in 10 minutes, versus sham [6, 8]: did not show abnormal activity
- Percentage of time spent in the open arms, comparison of Sham, bmTBI, bmTBI+H2 [6, 8]: did not differ significantly
- Gross motor function, latency on accelerating rotarod ([6]; 7 days after blast, 4% hydrogen gas 6 hours per day for 7 days, two-way ANOVA p>0.05): gross motor function was intact
- Total immobility time during the 6-minute trial ([6]; bmTBI+H2 group versus control, bmTBI increased, one-way ANOVA F=6.94, p=0.0036): comparable immobility time to control mice (Sham)
- Latency to the first bout of immobility ([6]; bmTBI+H2 group versus control, one-way ANOVA F=6.42, p=0.0051): latencies comparable to the control (Sham) group
- Correct choices (spatial working memory) ([6]; bmTBI+H2 group, Sham 62.6±1.8%, bmTBI 62.3±3.4%, mean±standard error, p>0.05): 60.4±3.4%
- Depression-like behaviors induced by blast exposure ([6]; conclusion from tail suspension and forced swim tests): suppresses depression-like behaviors induced by blast exposure
- Duration of interaction with an inanimate novel object, difference between groups ([6]; one-way ANOVA p>0.05): no difference
- Time required to find the buried food, difference between groups ([6]; one-way ANOVA p>0.05): no difference was found in the olfactory test
- Side effects of hydrogen [7]: no serious side effect
